Counter-ions that a name gives are not always drawn. Like-named read-outs stand apart in the source and are kept apart here.
Target: T1, Human IP6K1 (Homo sapiens, UniProt Q92551)
T1 construct: GST (N, cleaved yes); made in house; host or cells: C43 E. coli, pGEX-6P-2
Assay: IP6K1 high-throughput screen of the Sigma LOPAC (ADP-Glo Max, single point);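 note: final compound concentration 10µM in 5% DMSO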
Format: biochemical

[1] = LOPAC single-point screen, ADP-Glo Max luminescence raw signal per well
[2] = LOPAC single-point screen, Z-score relative to plate average and StDev
[3] = Sigma LOPAC single-point screen, ADP-Glo Max raw signal per well
[4] = Sigma LOPAC single-point screen, Z-score from plate average and StDev
[5] = LOPAC single-point screen, ADP-Glo Max raw signal per well
[6] = LOPAC single-point screen, Z-score against plate average and StDev
[7] = LOPAC single-point screen, Z-score from raw signal with plate average and StDev
[8] = LOPAC single-point screen, Z-score from plate average and StDev

T1 sequence (Q92551 whole entry): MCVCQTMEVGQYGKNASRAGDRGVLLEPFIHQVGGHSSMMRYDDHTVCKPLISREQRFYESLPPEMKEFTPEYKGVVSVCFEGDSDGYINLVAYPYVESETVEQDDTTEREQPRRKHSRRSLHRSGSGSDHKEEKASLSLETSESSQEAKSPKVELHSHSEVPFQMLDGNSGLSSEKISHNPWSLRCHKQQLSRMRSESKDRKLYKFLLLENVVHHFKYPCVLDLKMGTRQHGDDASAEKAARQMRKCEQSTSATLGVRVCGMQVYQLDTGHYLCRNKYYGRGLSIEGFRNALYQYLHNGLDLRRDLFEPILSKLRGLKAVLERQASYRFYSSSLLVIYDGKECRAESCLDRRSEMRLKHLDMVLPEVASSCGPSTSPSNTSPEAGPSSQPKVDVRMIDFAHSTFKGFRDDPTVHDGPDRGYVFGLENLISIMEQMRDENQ

Row | SMILES | Raw Signal [1] | Z-score [2] | Raw Signal [5] | other results
1 | COCC(=O)O[C@]1(CCN(C)CCCc2nc3ccccc3[nH]2)CCc2cc(F)ccc2[C@@H]1C(C)C [Mibefradil dihydrochloride] | 48952 | -0.9143 | – | –
2 | CC#C[C@]1(O)CC[C@H]2[C@@H]3CCC4=CC(=O)CCC4=C3[C@@H](c3ccc(N(C)C)cc3)C[C@@]21C [Mifepristone] | – | – | – | Raw Signal [3]: 60991; Z-score [4]: 1.109
3 | Cc1[nH]c(=O)c(C#N)cc1-c1ccncc1 [Milrinone] | – | – | 53863 | Z-score [6]: -0.08914
4 | CN(C)c1ccc(O)c2c1C[C@H]1C[C@H]3[C@H](N(C)C)C(O)=C(C(N)=O)C(=O)[C@@]3(O)C(O)=C1C2=O [Minocycline hydrochloride] | – | – | 55658 | Z-score [6]: 0.2125
5 | Nc1cc(N2CCCCC2)nc(N)[n+]1[O-] [Minoxidil] | – | – | 52091 | Z-score [7]: -0.3869
6 | O=C1c2c(O)ccc(O)c2C(=O)c2c(NCCNCCO)ccc(NCCNCCO)c21 [Mitoxantrone] | 48302 | -1.024 | – | –
7 | NC(=O)c1ncn([C@@H]2O[C@H](CO)[C@@H](O)[C@H]2O)c1O [Mizoribine] | 51474 | -0.4906 | – | –
8 | CCOC(=O)[N-]c1cn(N2CCOCC2)n[o+]1 [Molsidomine] | – | – | – | Raw Signal [3]: 60839; Z-score [4]: 1.083
9 | CCOC(=O)C1=C(C)NC(=S)NC1c1cccc(O)c1 (stereo not shown) [Monastrol] | – | – | 54262 | Z-score [6]: -0.0221
10 | O=c1c(O)c(-c2ccc(O)cc2O)oc2cc(O)cc(O)c12 [Morin] | 34376 | -3.363 | – | –
11 | CC(=O)Oc1cc(C(C)C)c(OCCN(C)C)cc1C [Moxisylyte hydrochloride] | – | – | 54969 | Z-score [6]: 0.0967
12 | COc1nc(C)nc(Cl)c1NC1=NCCN1.Cl [Moxonidine hydrochloride] | – | – | 52362 | Z-score [7]: -0.3413
13 | Br.NCc1cc(O)no1 [Muscimol hydrobromide] | – | – | 54732 | Z-score [6]: -0.08835
14 | Nc1ccc(CCNc2ncnc3c2ncn3[C@@H]2O[C@H](CO)[C@@H](O)[C@H]2O)cc1 [N6-2-(4-Aminophenyl)ethyladenosine] | 51199 | -1.183 | – | –
15 | OC[C@H]1O[C@@H](n2cnc3c(NCCc4ccccc4)ncnc32)[C@H](O)[C@@H]1O [N6-2-Phenylethyladenosine] | 52095 | -0.7633 | – | –
16 | CCNC(=O)[C@H]1O[C@@H](n2cnc3c(NCc4ccccc4)ncnc32)[C@H](O)[C@@H]1O [N6-Benzyl-5 -N-ethylcarboxamidoadenosine] | – | – | 59001 | Z-score [6]: 0.1916
17 | OC[C@H]1O[C@@H](n2cnc3c(NC4CCCCC4)ncnc32)[C@H](O)[C@@H]1O [N6-Cyclohexyladenosine] | – | – | – | Raw Signal [3]: 60438; Z-score [4]: 1.07
18 | Cn1cnc2c(NC3CCCC3)ncnc21 [N6-Cyclopentyl-9-methyladenine] | – | – | 52967 | Z-score [7]: -0.2397
19 | OC[C@H]1O[C@@H](n2cnc3c(NC4CCCC4)ncnc32)[C@H](O)[C@@H]1O [N6-Cyclopentyladenosine] | – | – | 55487 | Z-score [7]: -0.4273
20 | CNc1ncnc2c1ncn2[C@@H]1O[C@H](CO)[C@@H](O)[C@H]1O [N6-Methyladenosine] | 48943 | -0.9158 | – | –

Row | SMILES | Raw Signal [1] | Z-score [2] | Raw Signal [5] | other results
21 | OC[C@H]1O[C@@H](n2cnc3c(Nc4ccccc4)ncnc32)[C@H](O)[C@@H]1O [N6-Phenyladenosine] | – | – | 55025 | Z-score [7]: -0.194
22 | CN(C)C(=O)N=NC(=O)N(C)C [N,N,N ,N -Tetramethylazodicarboxamide] | – | – | – | Raw Signal [3]: 57249; Z-score [4]: 0.4228
23 | NCC(=O)NCCC(c1ccccc1)c1ccccc1 [N-(3,3-Diphenylpropyl)glycinamide] | 66051 | – | – | Z-score [8]: 2.21
24 | Nc1ccc(N2C(=O)c3ccccc3C2=O)c(Cl)c1 [N-(4-Amino-2-chlorophenyl)phthalimide] | – | – | – | Raw Signal [3]: 61206; Z-score [4]: 0.58
25 | CC(=O)NCCc1c[nH]c2ccc(O)cc12 [N-Acetyl-5-hydroxytryptamine] | 55051 | -0.5041 | – | –
26 | CC(=O)N[C@@H](CS)C(=O)O [N-Acetyl-L-Cysteine] | – | – | – | Raw Signal [3]: 65323; Z-score [4]: 1.305
27 | CC(=O)NCCc1ccc(O)c(O)c1.O [N-Acetyldopamine monohydrate] | – | – | – | Raw Signal [3]: 60782; Z-score [4]: 0.5053
28 | CCN(CC)CCNC(=O)c1ccc(NC(C)=O)cc1.Cl [N-Acetylprocainamide hydrochloride] | 70393 | – | – | Z-score [8]: 2.198
29 | CC(=O)NCCc1c[nH]c2ccccc12 [N-Acetyltryptamine] | 53398 | -0.7952 | – | –
30 | CC(=O)NBr [N-Bromoacetamide] | – | – | – | Raw Signal [3]: 65186; Z-score [4]: 1.281
31 | CCN1C(=O)C=CC1=O [N-Ethylmaleimide] | – | – | 55064 | Z-score [6]: -0.02093
32 | CN1C[C@H](O)[C@@H](O)[C@H](O)[C@H]1CO [N-Methyl-1-deoxynojirimycin] | – | – | 53171 | Z-score [7]: -0.2054
33 | CN[C@H](CC(=O)O)C(=O)O [N-Methyl-D-aspartic acid] | – | – | – | Raw Signal [3]: 57133; Z-score [4]: 0.4603
34 | CNC(=O)c1cc2c(cn1)[nH]c1ccccc12 [N-Methyl-beta-carboline-3-carboxamide] | – | – | – | Raw Signal [3]: 57600; Z-score [4]: 0.4941
35 | CNCCc1ccc(O)c(O)c1.Cl [N-Methyldopamine hydrochloride] | 45936 | -1.875 | – | –
36 | CCCCCCCC/C=C\CCCCCCCC(=O)NCCc1ccc(O)c(O)c1 [N-Oleoyldopamine] | 53486 | -0.493 | – | –
37 | CCCCCCCC/C=C\CCCCCCCC(=O)NCCO [N-Oleoylethanolamine] | – | – | 53081 | Z-score [7]: -0.2205
38 | O=C(O)c1ccccc1Nc1ccccc1 [N-Phenylanthranilic acid] | – | – | – | Raw Signal [3]: 63268; Z-score [4]: 0.9431
39 | O=C(O)CCC(=O)N1CCC[C@H]1C(=O)O [N-Succinyl-L-proline] | – | – | 55499 | Z-score [7]: -0.102
40 | CCCCC/C=C\C/C=C\C/C=C\C/C=C\CCCC(=O)NCC(=O)O [N-arachidonylglycine] | – | – | 55672 | Z-score [7]: -0.3947

Row | SMILES | Raw Signal [1] | Z-score [2] | Raw Signal [5] | other results
41 | NC(=O)C1=CN([C@@H]2O[C@H](COP(=O)([O-])OP(=O)([O-])OC[C@H]3O[C@@H](n4cnc5c(N)ncnc54)[C@H](OP(=O)([O-])[O-])[C@@H]3O)[C@@H](O)[C@H]2O)C=CC1.[Na+].[Na+].[Na+].[Na+] [NADPH tetrasodium] | – | – | – | Raw Signal [3]: 57869; Z-score [4]: 0.584
42 | Br.COc1ccccc1N1CCN(CCCCN2C(=O)c3ccccc3C2=O)CC1 [NAN-190 hydrobromide] | – | – | – | Raw Signal [3]: 61226; Z-score [4]: 1.148
43 | CCCN(CC1CC1)c1nc(C)nc(Nc2c(Cl)cc(Cl)cc2Cl)c1Cl [NBI 27914] | 52610 | -0.5193 | – | –
44 | NS(=O)(=O)c1cccc2c1c([N+](=O)[O-])cc1nc([O-])c([O-])nc12.[Na+].[Na+] [NBQX disodium] | – | – | 52080 | Z-score [7]: -0.3887
45 | O=C([O-])/C=C/C(O)c1ccc(Cl)cc1.[Na+] (stereo not shown) [NCS-356] | – | – | – | Raw Signal [3]: 58969; Z-score [4]: 0.7688
46 | O=C(O)/C=C1\CCCc2ccccc2C1O (stereo not shown) [NCS-382] | 49943 | -0.7478 | – | –
47 | O=C(Nc1cc(C(=O)Nc2ccc(S(=O)(=O)[O-])cc2S(=O)(=O)[O-])cc(C(=O)Nc2ccc(S(=O)(=O)[O-])cc2S(=O)(=O)[O-])c1)Nc1cc(C(=O)Nc2ccc(S(=O)(=O)[O-])cc2S(=O)(=O)[O-])cc(C(=O)Nc2ccc(S(=O)(=O)[O-])cc2S(=O)(=O)[O-])c1.[Na+].[Na+].[Na+].[Na+].[Na+].[Na+].[Na+].[Na+] [NF449 octasodium salt] | 9787 | -7.495 | – | –
48 | O=C(Nc1cccc(C(=O)Nc2ccc(S(=O)(=O)O)c3cc(S(=O)(=O)O)cc(S(=O)(=O)O)c23)c1)Nc1cccc(C(=O)Nc2ccc(S(=O)(=O)O)c3cc(S(=O)(=O)O)cc(S(=O)(=O)O)c23)c1 [NF 023] | 39481 | -2.506 | – | –
49 | CC(=O)O.NC(=NCCC[C@H](N)C(=O)O)NO [NG-Hydroxy-L-arginine acetate] | – | – | 53960 | Z-score [7]: -0.2451
50 | [H]/N=C(/NC)NCCC[C@H](N)C(=O)O [NG-Monomethyl-L-arginine acetate] | 51513 | -0.484 | – | –
51 | N=C(NCCC[C@H](N)C(=O)O)N[N+](=O)[O-] [NG-Nitro-L-arginine] | – | – | – | Raw Signal [3]: 57372; Z-score [4]: 0.5005
52 | Cl.O=C(O)C1=CCCN(CCON=C(c2ccccc2)c2ccccc2)C1 [NO-711 hydrochloride] | – | – | – | Raw Signal [3]: 58704; Z-score [4]: 0.7243
53 | O=c1onc2n1-c1cc(Br)ccc1OC2 [NS 2028] | – | – | 54790 | Z-score [6]: 0.06662
54 | O=c1[nH]c2cc(C(F)(F)F)ccc2n1-c1cc(C(F)(F)F)ccc1O [NS-1619] | 51434 | -0.4973 | – | –
55 | O=C1C(SCCO)=C(SCCO)C(=O)c2ccccc21 [NSC 95397] | – | – | 55516 | Z-score [6]: 0.07087
56 | CN(C)C(N)=NCCC[C@H](N)C(=O)O.Cl [N^G,N^G-Dimethylarginine hydrochloride] | – | – | 52909 | Z-score [7]: -0.4586
57 | COc1ccccc1N1CCN(CC(O)COc2cccc3ccccc23)CC1.Cl.Cl (stereo not shown) [Naftopidil dihydrochloride] | – | – | – | Raw Signal [3]: 57488; Z-score [4]: 0.52
58 | Oc1ccc2c3c1O[C@H]1[C@@H](O)CC[C@@]4(O)[C@@H](C2)N(CC2CCC2)CC[C@]314 [Nalbuphine hydrochloride] | – | – | – | Raw Signal: 53889; Z-score: -0.08477
59 | CCn1cc(C(=O)[O-])c(=O)c2ccc(C)nc21.[Na+] [Nalidixic acid sodium] | 49665 | -0.7945 | – | –

Reference: article PMC5706701, “Development of a homogenous high-throughput assay for inositol hexakisphosphate kinase 1 activity” (PLoS ONE, 2017)
